Measured values taken from patent US20080085886A1, “Aza-benzofuranyl compounds and methods of use” (GENENTECH, INC., priority 2006, published 2008).

System: cellular p-ERK in HCT116 human colorectal carcinoma / A375 human malignant melanoma cell lines
Test: Phospho-ERK cell-based assay (ELISA), Example 4
Details: in either one of the cell lines (HCT116, A375), 2 h or 24 h exposure
Procedure: Example 4 Phospho-ERK Cell-Based Assay
Compounds are tested in a cell-based phospho-ERK ELISA using the following cell lines:
HCT116 human colorectal carcinoma (ATCC)
A375 human malignant melanoma (ATCC)
Both cell lines are maintained in DMEM/F12 (1:1) media (Gibco) supplemented with 10% FCS at 37° C. in a 5% CO2 humidified incubator.
Cells are seeded in 96-well plates at 2,000 cells/well and after 24 h they are exposed to different concentrations of compounds in 0.83% DMSO. Cells are grown for a further 2 h or 24 h, fixed with formaldehyde (2% final) and permeabilised with methanol. Following blocking with TBST-3% BSA, fixed cells are incubated with primary antibody (anti-phospho ERK from rabbit) over-night at 4° C. Cells are incubated with Propidium Iodide (DNA fluorescent dye) and detection of cellular p-ERK is performed using an anti-rabbit secondary antibody conjugated to the fluorescent Alexa Fluor 488 dye (Molecular probes). The fluorescence is analysed using the Acumen Explorer (TTP Labtech), a laser-scanning microplate cytometer, and the Alexa Fluor 488 signal is normalised to the PI signal (proportional to cell number).
The EC50 is defined as the concentration at which a given compound achieves a signal half way between the baseline and the maximum response. EC50 values are calculated using the XLfit software package (version 2.0.5).

EC50, < 10 µM:
Cc1nccc2oc(C(=O)NOCCO)c(Nc3ccc(I)cc3F)c12 [Example 144, 3-(2-Fluoro-4-iodo-phenylamino)-methyl-furo[3,2-c]pyridine-2-carboxylic acid (2-hydroxy-ethoxy)-amide]
CCONC(=O)c1oc2ccncc2c1Nc1ccc(I)cc1F [Example 50, (2-Fluoro-4-iodo-phenyl amino)-N-ethoxyfuro[3,2-c]pyridine-2-carboxamide]
O=C(NCCCO)c1oc2ccncc2c1Nc1ccc(I)cc1F [Example 61, 3-(2-fluoro-4-iodophenylamino)-N-(3-hydroxypropyl)furo[3,2-c]pyridine-2-carboxamide]
CC1(O)CCN(C(=O)c2oc3ccncc3c2Nc2ccc(I)cc2F)C1 (stereo not drawn) [Example 120, (3-(2-fluoro-4-iodophenylamino)furo[3,2-c]pyridine-2-yl)(3-hydroxy-3-methylpyrrolidin-1-yl)methanone]
O=C(NC(CO)CO)c1oc2ccncc2c1Nc1ccc(I)cc1F [Example 68, 3-(2-fluoro-4-iodophenylamino)-N-(1,3-dihydroxypropan-2-yl)furo[3,2-c]pyridine-2-carboxamide]
N[C@@H]1CCN(C(=O)c2oc3ccncc3c2Nc2ccc(I)cc2F)C1 [Example 74, (3-(2-fluoro-4-iodophenylamino)furo[3,2-c]pyridin-2-yl)((R)-3-aminopyrrolidin-1-yl)methanone]
CN(C)C(=O)c1oc2ccncc2c1Nc1ccc(I)cc1F [Example 83, 3-(2-fluoro-4-iodophenylamino)-N,N-dimethylfuro[3,2-c]pyridine-2-carboxamide]
O=C(NOC[C@H](O)CO)c1oc2c(F)cncc2c1Nc1ccc(I)cc1F [Example 159, 7-Fluoro-3-(2-fluoro-4-iodo-phenylamino)-furo[3,2-c]pyridine-2-carboxylic acid ((R)-2,3-dihydroxy-propoxy)-amide]
C[C@H](O)CONC(=O)c1oc2ccncc2c1Nc1ccc(I)cc1F [Example 118, 3-(2-Fluoro-4-iodo-phenylamino)-furo[3,2-c]pyridine-2-carboxylic acid ((S)-2-hydroxy-propoxy)-amide]
O=C(c1oc2ccncc2c1Nc1ccc(I)cc1F)N1C[C@H](O)C[C@@H]1CO [Example 126, (3-(2-fluoro-4-iodophenylamino)furo[3,2-c]pyridin-2-yl)((2R,4R)-4-hydroxy-2-(hydroxymethyl)pyrrolidin-1-yl)methanone]
O=C(NCCO)c1oc2ccncc2c1Nc1ccc(I)cc1F [Example 82, 3-(2-fluoro-4-iodophenylamino)-N-(2-hydroxyethyl)furo[3,2-c]pyridine-2-carboxamide]
CNC(=O)c1oc2ccncc2c1Nc1ccc(I)cc1F [Example 91, 3-(2-fluoro-4-iodophenylamino)-N-methylfuro[3,2-c]pyridine-2-carboxamide]
O=C(c1oc2c(F)cncc2c1Nc1ccc(I)cc1F)N1CC[C@@H](O)C1 [Example 157, [7-Fluoro-3-(2-fluoro-4-iodo-phenylamino)-furo[3,2-c]pyridin-2-yl]-((R)-3-hydroxy-pyrrolidin-1-yl)-methanone]
O=C(c1oc2ccncc2c1Nc1ccc(I)cc1F)N1CCC[C@H]1CO [Example 79, (3-(2-fluoro-4-iodophenylamino)furo[3,2-c]pyridin-2-yl)((S)-2-(hydroxymethyl)pyrrolidin-1-yl)methanone]
CC(C)ONC(=O)c1oc2ccncc2c1Nc1ccc(I)cc1F [Example 43, (2-Fluoro-4-iodo-phenylamino)-N-isopropoxyfuro[3,2-c]pyridine-2-carboxamide]
O=C(c1oc2ccncc2c1Nc1ccc(I)cc1F)N1CC[C@H](O)[C@H]1CO [Example 131, (3-(2-fluoro-4-iodophenylamino)furo[3,2-c]pyridin-2-yl)((2R,3S)-3-hydroxy-2-(hydroxymethyl)pyrrolidin-1-yl)methanone]
CSc1ccc(Nc2c(C(=O)NOCCO)oc3c(Cl)cncc23)c(F)c1 [Example 152, 7-Chloro-3-(2-fluoro-4-methylsulfanyl-phenylamino)-furo[3,2-c]pyridine-2-carboxylic acid (2-hydroxy-ethoxy)-amide]
O=C(c1oc2ccncc2c1Nc1ccc(I)cc1F)N1C[C@H](O)C[C@H]1CO [Example 127, (3-(2-fluoro-4-iodophenylamino)furo[3,2-c]pyridin-2-yl)((2S,4R)-4-hydroxy-2-(hydroxymethyl)pyrrolidin-1-yl)methanone]
O=C(c1oc2ccncc2c1Nc1ccc(I)cc1F)N1CC[C@@H](O)C1 [Example 59, (3-(2-fluoro-4-iodophenyl amino)furo[3,2-c]pyridin-2-yl)((R)-3-hydroxypyrrolidin-1-yl)methanone]
CC(O)CONC(=O)c1oc2ccncc2c1Nc1ccc(I)cc1F (stereo not drawn) [Example 55, 3-(2-Fluoro-4-iodo-phenylamino)-furo[3,2-c]pyridine-2-carboxylic acid (2-hydroxy-propoxy)-amide]
O=C(NCC(O)CO)c1oc2ccncc2c1Nc1ccc(I)cc1F (stereo not drawn) [Example 84, 3-(2-fluoro-4-iodophenylamino)-N-(2,3-dihydroxypropyl)furo[3,2-c]pyridine-2-carboxamide]
O=C(NCCCONC(=O)c1oc2ccncc2c1Nc1ccc(I)cc1F)c1ccccn1 [Example 46]
O=C(NOCCO)c1oc2ccnc(Cl)c2c1Nc1ccc(I)cc1F [Example 147, 4-Chloro-3-(2-fluoro-4-iodo-phenylamino)-furo[3,2-c]pyridine-2-carboxylic acid (2-hydroxy-ethoxy)-amide]
O=C(NOCCO)c1oc2c(F)cncc2c1Nc1ccc(I)cc1F [Example 139, 7-Fluoro-3-(2-fluoro-4-iodo-phenylamino)-furo[3,2-c]pyridine-2-carboxylic acid (2-hydroxy-ethoxy)-amide]
O=C(NOCCO)c1oc2ccncc2c1Nc1ccc(Br)cc1Cl [Example 26, 3-(4-Bromo-2-chloro-phenylamino)-furo[3,2-c]pyridine-2-carboxylic acid (2-hydroxy-ethoxy)-amide]
CN(OCCO)C(=O)c1oc2ccncc2c1Nc1ccc(I)cc1F [Example 23, 3-(2-Fluoro-4-iodo-phenylamino)-furo[3,2-c]pyridine-2-carboxylic acid (2-hydroxy-ethoxyl)-methyl-amide]
C[C@@H](O)CONC(=O)c1oc2ccncc2c1Nc1ccc(I)cc1F [Example 117, 3-(2-Fluoro-4-iodo-phenylamino)-furo[3,2-c]pyridine-2-carboxylic acid ((R)-2-hydroxy-propoxy)-amide]
O=C(c1oc2c(F)cncc2c1Nc1ccc(I)cc1F)N1C[C@H](O)[C@@H](O)C1 [Example 158, ((3S,4S)-3,4-Dihydroxy-pyrrolidin-1-yl)-[7-fluoro-3-(2-fluoro-4-iodo-phenylamino)-furo[3,2-c]pyridin-2-yl]-methanone]
O=C(NOCc1ccccc1)c1oc2ccncc2c1Nc1ccc(I)cc1F [Example 44, (2-Fluoro-4-iodo-phenylamino)-N-benzyloxyfuro[3,2-c]pyridine-2-carboxamide]
CC(C)(CO)ONC(=O)c1oc2c(F)cncc2c1Nc1ccc(I)cc1F [Example 156, 7-Fluoro-3-(2-fluoro-4-iodo-phenylamino)-furo[3,2-c]pyridine-2-carboxylic acid (2-hydroxy-1,1-dimethyl-ethoxy)-amide]
CC(C)CONC(=O)c1oc2ccncc2c1Nc1ccc(I)cc1F [Example 42, (2-Fluoro-4-iodo-phenylamino)-N-isobutoxyfuro[3,2-c]pyridine-2-carboxamide]
O=C(c1oc2ccncc2c1Nc1ccc(I)cc1F)N1C[C@H](O)[C@@H](O)C1 [Example 60, (3-(2-fluoro-4-iodophenyl amino)furo[3,2-c]pyridin-2-yl)((3S,4S)-3,4-dihydroxypyrrolidin-1-yl)methanone]
CN(CCO)C(=O)c1oc2ccncc2c1Nc1ccc(I)cc1F [Example 81, 3-(2-fluoro-4-iodophenylamino)-N-(2-hydroxyethyl)-N-methylfuro[3,2-c]pyridine-2-carboxamide]
O=C(c1oc2ccncc2c1Nc1ccc(I)cc1F)N1C[C@@H](O)[C@H](O)[C@H]1CO [Example 124, (3-(2-fluoro-4-iodophenylamino)furo[3,2-c]pyridin-2-yl)((2R,3R,4R)-3,4-dihydroxy-2-(hydroxymethyl)pyrrolidin-1-yl)methanone]
O=C(NOc1ccccc1)c1oc2ccncc2c1Nc1ccc(I)cc1F [Example 111, 3-(2-Fluoro-4-iodo-phenylamino)-N-phenyloxyfuro[3,2-c]pyridine-2-carboxamide]
O=C(NCC[C@H](O)CO)c1oc2ccncc2c1Nc1ccc(I)cc1F [Example 95, 3-(2-fluoro-4-iodophenylamino)-N-((S)-3,4-dihydroxybutyl)furo[3,2-c]pyridine-2-carboxamide]
